{"source": "PubChem BioAssay AID1259409", "about": "(Chemical Carcinogenesis Research Information System (CCRIS), 2018)", "origin": "cited, not measured here", "tested_on": "rodent chemically induced tumor inhibition, incidence and multiplicity", "experiment": "CCRIS tumor inhibitor studies", "conditions": "Dose [Inhibitor]: 0"}
{"smiles": "O=c1oc2c(O)c(O)cc3c(=O)oc4c(O)c(O)cc1c4c23", "values": [{"measurement": "tumour outcome (control, treated, inhibition, significance)", "setting": "Carcinogen: AZOXYMETHANE, 25843-45-2, 4000 PPM IN DIET BEGINNING PRIOR TO CARCINOGEN DOSE AND CONTINUING FOR DURATION OF STUDY (STUDY DURATION: 54 WK), Route [Inhibitor]: ORAL, Species: RAT, Strain/Sex: F344/MALE, Target Tissue: Type of Lesion: SMALL INTESTINE: ADENOCARCINOMA, Dose [Carcinogen]: 15 MG/KG 1/WK FOR 2 WK, Promoter: NONE USED", "result": "50%, 36%, 28%, not calculated"}, {"measurement": "tumour outcome (control, treated, inhibition, significance)", "setting": "Carcinogen: AZOXYMETHANE, 25843-45-2, 4000 PPM IN DIET BEGINNING PRIOR TO CARCINOGEN DOSE AND CONTINUING FOR DURATION OF STUDY (STUDY DURATION: 54 WK), Route [Inhibitor]: ORAL, Species: RAT, Strain/Sex: F344/MALE, Target Tissue: Type of Lesion: SMALL INTESTINE: ADENOMA, Dose [Carcinogen]: 15 MG/KG 1/WK FOR 2 WK, Promoter: NONE USED", "result": "3%, 0%, 100%, not calculated"}, {"measurement": "tumour outcome (control, treated, inhibition, significance)", "setting": "Carcinogen: AZOXYMETHANE, 25843-45-2, 4000 PPM IN DIET FOR 56 WK BEGINNING 2 WK PRIOR TO CARCINOGEN TREATMENT (STUDY DURATION: 56 WK), Route [Inhibitor]: ORAL, Species: RAT, Strain/Sex: F344/MALE, Target Tissue: Type of Lesion: COLON (DISTAL): TUMOR, Dose [Carcinogen]: 15 MG/KG 1/WK FOR 2 WK, Promoter: NONE USED", "result": "47%, 47%, 0%, not significant"}, {"measurement": "tumour outcome (control, treated, inhibition, significance)", "setting": "Carcinogen: AZOXYMETHANE, 25843-45-2, 4000 PPM IN DIET FOR 56 WK BEGINNING 2 WK PRIOR TO CARCINOGEN TREATMENT (STUDY DURATION: 56 WK), Route [Inhibitor]: ORAL, Species: RAT, Strain/Sex: F344/MALE, Target Tissue: Type of Lesion: COLON (PROXIMAL): TUMOR, Dose [Carcinogen]: 15 MG/KG 1/WK FOR 2 WK, Promoter: NONE", "result": "39%, 44%, -13%, not significant"}, {"measurement": "tumour outcome (control, treated, inhibition, significance)", "setting": "Carcinogen: AZOXYMETHANE, 25843-45-2, 8000 PPM IN DIET BEGINNING PRIOR TO CARCINOGEN DOSE AND CONTINUING FOR DURATION OF STUDY (STUDY DURATION: 54 WK), Route [Inhibitor]: ORAL, Species: RAT, Strain/Sex: F344/MALE, Target Tissue: Type of Lesion: COLON: ADENOCARCINOMA, Dose [Carcinogen]: 15 MG/KG 1/WK FOR 2 WK, Promoter: NONE USED", "result": "72%, 64%, 11%, not calculated"}, {"measurement": "tumour outcome (control, treated, inhibition, significance)", "setting": "Carcinogen: AZOXYMETHANE, 25843-45-2, 8000 PPM IN DIET BEGINNING PRIOR TO CARCINOGEN DOSE AND CONTINUING FOR DURATION OF STUDY (STUDY DURATION: 54 WK), Route [Inhibitor]: ORAL, Species: RAT, Strain/Sex: F344/MALE, Target Tissue: Type of Lesion: COLON: ADENOMA, Dose [Carcinogen]: 15 MG/KG 1/WK FOR 2 WK, Promoter: NONE USED", "result": "14%, 3%, 76%, not calculated"}, {"measurement": "tumour outcome (control, treated, inhibition, significance)", "setting": "Carcinogen: AZOXYMETHANE, 25843-45-2, 8000 PPM IN DIET BEGINNING PRIOR TO CARCINOGEN DOSE AND CONTINUING FOR DURATION OF STUDY (STUDY DURATION: 54 WK), Route [Inhibitor]: ORAL, Species: RAT, Strain/Sex: F344/MALE, Target Tissue: Type of Lesion: SMALL INTESTINE: ADENOCARCINOMA, Dose [Carcinogen]: 15 MG/KG 1/WK FOR 2 WK, Promoter: NONE USED", "result": "50%, 28%, 44%, not calculated"}, {"measurement": "tumour outcome (control, treated, inhibition, significance)", "setting": "Carcinogen: AZOXYMETHANE, 25843-45-2, 8000 PPM IN DIET BEGINNING PRIOR TO CARCINOGEN DOSE AND CONTINUING FOR DURATION OF STUDY (STUDY DURATION: 54 WK), Route [Inhibitor]: ORAL, Species: RAT, Strain/Sex: F344/MALE, Target Tissue: Type of Lesion: SMALL INTESTINE: ADENOMA, Dose [Carcinogen]: 15 MG/KG 1/WK FOR 2 WK, Promoter: NONE USED", "result": "3%, 0%, 100%, not calculated"}, {"measurement": "tumour outcome (control, treated, inhibition, significance)", "setting": "Carcinogen: AZOXYMETHANE, 25843-45-2, 8000 PPM IN DIET FOR 56 WK BEGINNING 2 WK PRIOR TO CARCINOGEN TREATMENT (STUDY DURATION: 56 WK), Route [Inhibitor]: ORAL, Species: RAT, Strain/Sex: F344/MALE, Target Tissue: Type of Lesion: COLON(DISTAL): TUMOR, Dose [Carcinogen]: 15 MG/KG 1/WK FOR 2 WK, Promoter: NONE USED", "result": "47%, 47%, 0%, not significant"}, {"measurement": "tumour outcome (control, treated, inhibition, significance)", "setting": "Carcinogen: AZOXYMETHANE, 25843-45-2, 8000 PPM IN DIET FOR 56 WK BEGINNING 2 WK PRIOR TO CARCINOGEN TREATMENT (STUDY DURATION: 56 WK), Route [Inhibitor]: ORAL, Species: RAT, Strain/Sex: F344/MALE, Target Tissue: Type of Lesion: COLON(PROXIMAL): TUMOR, Dose [Carcinogen]: 15 MG/KG 1/WK FOR 2 WK, Promoter: NONE USED", "result": "39%, 30%, 23%, not significant"}, {"measurement": "tumour outcome (control, treated, inhibition, significance)", "setting": "Carcinogen: BENZO[A]PYRENE, 50-32-8, 300 NMOL (TOTAL DOSE) APPLIED 10 MIN PRIOR TO CARCINOGEN DOSE INJECTED AS 1/7, 2/7, AND 4/7 OF THE TOTAL ON DAYS 1, 8, Route [Inhibitor]: INTRAPERITONEAL, Species: MOUSE, Strain/Sex: ICR/MALE, FEMALE, Target Tissue: Type of Lesion: LUNG: TUMOR, Dose [Carcinogen]: 450 NMOL (TOTAL DOSE) INJECTED IN DOSES OF 1/7, 2/7, AND 4/7 ON DAYS 1, 8, AND 15 OF LIFE, RESPECTIVELY, Promoter: NONE USED", "result": "74%, 75%, -1%, not significant"}]}
